Patent US5698590A, “Prostaglandin derivatives” (Ono Pharmaceutical Co., Ltd., priority 1995, dated 1997)

Key:
[1] = solubility of comparative compound; assay type: physicochemical; conditions: administration without solubilizer was impossible
[2] = tested on: cutaneous blood flow of the dorsum pedis; experiment: blood flow increasing effect in anesthetized rats (laser-Doppler flowmetry, AUC); assay type: in vivo, Male rats; set-up: Blood flow increasing effect: Total AUC: unit not given here; conditions: for Blood flow increasing effect: Total AUC / Blood flow increasing effect: Dose (A) required to obtain AUC = 771: rat; for Blood flow increasing effect: Total AUC: injection via jugular vein; for Blood flow increasing effect: Dose (A) required to obtain AUC = 771: AUC 771 = effect of PGE1 lipid emulsion 5 μg/kg i.v.; for Blood flow increasing effect: Relative activity (X): relative to comparative compound = 1, from Dose (A)
Method: (§1) Male rats weighing 200-350 g were anesthetized with urethane (25% urethane, 6 ml/kg, s.c.). The carotid artery and jugular vein were cannulated with polyethylene tubes for measurement of blood pressure and for drug injection, respectively. Blood pressure was obtained with a disposable pressure transducer kit (Spectramed, Ltd) and recorded with a recticoder (model RJG-4128, Nihon kohden, Ltd). Also, blood flow was monitored as cutaneous blood flow of the dorsum pedis using an attachment-type laser-Doppler flowmeter (model ALF21, Advance, Ltd). Measurements were taken until the values recovered to the level observed before injection of drugs. Injection time was about 10 seconds. The hypotensive effect and blood flow increasing effect were calculated as the maximum hypotensive activity (mmHg) and the area under the curve (AUC) after injection of drugs, respectively.
(§2) The results were represented by the dose required to obtain an effective increase in blood flow (main effect), and by the hypotensive effect (side effect) at the same dose.
(§3) The compounds of the present invention were administered in the form of liposome formulations (as prepared in Example 3 below). […] The solubility of this comparative compound was very low; thus, administration without solubilizer was impossible.
The effectiveness of increasing blood flow was determined by the following method.
(§4) The dry lipid film was dispersed into a 10% maltose solution (3 ml) by using a vortex mixer (type S-100, Taiyokagaku Inc.) and an aqueous suspension with a drug concentration of 1, 3, 10, or 30 μg/ml was obtained. The obtained multilamellar liposome solutions (3 ml) were transferred into plastic tubes and then sonicated with a probe sonicator (type: SONIFIER cell disruptor 200, Branson) at the condition of 50% pulsed operation for 15 minutes. The sonicated solutions were passed through a membrane filter with a pore diameter of 0.2 μm to remove titanium particles and liposome formulations with a mean diameter of 40-70 nm were formed.

blood pressure = experiment: hypotensive effect in anesthetized rats (maximum hypotensive activity); assay type: in vivo, Male rats; conditions: for Hypotensive effect: Maximum hypotension on dose (A): at dose (A) required to obtain AUC = 771; for Hypotensive effect: Maximum hypotension on dose (A) / Hypotensive effect: Maximum hypotension: rat; for Hypotensive effect: Maximum hypotension: injection via jugular vein; for Hypotensive effect: Relative activity (X): relative to comparative compound = 1, at dose (A)
Method: as §1, §2, §3, §4

Compound	solubility [1]	Blood flow increasing effect: Total AUC ([2]; dose 3 μg/kg)	Blood flow increasing effect: Total AUC ([2]; dose 10 μg/kg)	Blood flow increasing effect: Total AUC ([2]; dose 30 μg/kg)	Blood flow increasing effect: Dose (A) required to obtain AUC = 771 [2]	Blood flow increasing effect: Relative activity (X) [2]	Hypotensive effect: Maximum hypotension on dose (A) (blood pressure)	Hypotensive effect: Maximum hypotension (blood pressure; dose 3 μg/kg)	Hypotensive effect: Maximum hypotension (blood pressure; dose 10 μg/kg)	Hypotensive effect: Maximum hypotension (blood pressure; dose 30 μg/kg)	Hypotensive effect: Relative activity (X) (blood pressure)	Blood flow increasing effect: Total AUC ([2]; dose 1 μg/kg)	Hypotensive effect: Maximum hypotension (blood pressure; dose 1 μg/kg)
CCCCCCCCCCCCCCCC(=O)OCC(COC(=O)CCCCCCCCCCCCCCC)OC(=O)CCCCCC[C@H]1C(=O)C[C@@H](O)[C@@H]1/C=C/[C@@H](O)CCCCC [Comparative compound, PGE1 1,3-bis(palmitoyloxy)-2-propyl ester, reference compound]	very low	350	710	830	23.6 µg/kg	1	7.1 mmHg	1 mmHg	6 mmHg	8 mmHg	1		
CCCCCCCCCCCC(=O)OCC(COC(=O)CCCCCCCCCCC)OC(=O)CCCCCC[C@H]1C(=O)C[C@@H](O)[C@@H]1/C=C/[C@@H](O)CCCCC [Example 1, PGE1 1,3-bis (dodecanoyloxy)-2-propyl ester]		483	2566		3.6 µg/kg	6.6	2.2 mmHg	1 mmHg	9 mmHg		0.31	116	0 mmHg
CCCCCC(=O)OCC(COC(=O)CCCCC)OC(=O)CCCCCC[C@H]1C(=O)C[C@@H](O)[C@@H]1/C=C/[C@@H](O)CCCCC [Example 2, PGE1 1,3-bis (hexanoyloxy)-2-propyl ester]		1206	3919		2.2 µg/kg	10.7	6.7 mmHg	9 mmHg	19 mmHg		0.94	185	4 mmHg
